Assays:
[1] = test system: Green peach aphids (Myzus Persicae Sulzer); assay: bioactivity test against green peach aphid, airbrush foliar spray; assay type: in vivo; settings: for Insecticidal activity against peach aphid (%): contrastive test
Summary of the method: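 Aphids (15-30 per cabbage leaf disc) on moist filter paper were airbrush-sprayed at 10 psi, 0.5 mL, with compound from acetone:methanol (1:1) diluted in water with 0.1% tween 80. Held at 25±1 C, 60±5% RH; survivors counted after 48 hrs to give death rates.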

wheat powdery mildew = assay: protectant activity in vivo against wheat powdery mildew; settings: for protectant activity against wheat powdery mildew in vivo: 400 ppm
carmine spider mite = assay: bioactivity test against carmine spider mite, airbrush spray; assay type: in vivo
Summary of the method: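 Broadbean seedlings infested with adult mites were sprayed with compound (acetone/methanol stock diluted in 0.1% Tween 80 water) by airbrush at 0.7 kg/cm^2, 0.5 ml. Three replicates were run. Mortality was scored after 72 hrs.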

corn rust = assay: protectant activity in vivo against corn rust
armyworm = assay: bioactivity test against armyworm, airbrush spray; assay type: in vivo; settings: for control (test results against armyworm): mortality after 72 h
Diamond back moth = assay: insecticidal activity against diamond back moth, airbrush spray; assay type: in vivo
Summary of the method: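 Airbrush leaf-disc spray test: both faces of 2 cm cabbage discs received 0.5 ml of test solution at 0.7 kg/cm^2. Solutions were made in acetone:methanol (1:1) and brought to concentration with 0.1% Tween 80 in water. Ten second-instar larvae per disc, triplicates, were held at 25° C and 60˜70% R.H., with mortality recorded at 72 hrs.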

cucumber downy mildew = assay: protectant activity in vivo against cucumber downy mildew; settings: for control effect against cucumber downy mildew (%): protectant activity
[2] = 100 ppm, death rate after 48 hrs
[3] = 600 ppm, death rate after 48 hrs
[4] = 100 ppm, mortality after 72 hrs
[5] = 10 ppm, death rate after 48 hrs
[6] = 600 ppm, mortality after 72 hrs

| SMILES | Insecticidal activity against peach aphid (%) ([1]; 2.5 mg/L) | Insecticidal activity against peach aphid (%) ([1]; 5 mg/L) | Insecticidal activity against peach aphid (%) ([1]; 10 mg/L) | Insecticidal activity against peach aphid (%) ([1]; 100 mg/L) | Insecticidal activity against peach aphid (%) ([1]; 600 mg/L) | Insecticidal activity against carmine spider mite (% ) (carmine spider mite; 600 mg/L, contrastive test) [%] | Insecticidal activity against armyworm (%) (armyworm; 600 mg/L) | control (test results against green peach aphid) [1, 2] [%] | control (test results against green peach aphid) [1, 3] [%] | protectant activity against wheat powdery mildew in vivo (wheat powdery mildew) [%] | control against carmine spider mite (carmine spider mite; [4]) [%] | control (test results against armyworm) (armyworm; 600 ppm) [%] | control (test results against green peach aphid) [1, 5] [%] | control effect against cucumber downy mildew (%) (cucumber downy mildew; 6.25 mg/L) | control effect against cucumber downy mildew (%) (cucumber downy mildew; 12.5 mg/L) | control effect against cucumber downy mildew (%) (cucumber downy mildew; 25 mg/L) | control effect against cucumber downy mildew (%) (cucumber downy mildew; 50 mg/L) | control effect against cucumber downy mildew (%) (cucumber downy mildew; 100 mg/L) | control effect against cucumber downy mildew (%) (cucumber downy mildew; 400 mg/L) | protectant activity against cucumber downy mildew in vivo (cucumber downy mildew; 6.25 ppm) [%] | further results |
| --- | --- | --- | --- | --- | --- | --- | --- | --- | --- | --- | --- | --- | --- | --- | --- | --- | --- | --- | --- | --- | --- |
| CC(Cl)c1ncnc(NCCc2ccc(Oc3ncc(C(F)(F)F)cc3Cl)cc2)c1Cl (centres unmarked) [CK44, reference compound] | 0 | 19 | 35 | 98 | 100 | 0 | 0 | – | – | – | – | – | – | – | – | – | – | – | – | – | control effect against wheat powdery mildew (%) (wheat powdery mildew; 400 mg/L, protectant activity): 0%; control effect against corn rust (%) (corn rust; 400 mg/L, protectant activity): 85%; Insecticidal activity against diamond back moth (%) (Diamond back moth; 10 mg/L): 10%; Insecticidal activity against diamond back moth (%) (Diamond back moth; 100 mg/L): 25%; Insecticidal activity against diamond back moth (%) (Diamond back moth; 600 mg/L): 80% |
| Cc1ncnc(NCCc2ccc(Oc3ccc(C(F)(F)F)cn3)cc2)c1Cl [Compound I-6729] | – | – | – | – | – | – | – | 100 | 100 | 100 | 100 | 100 | – | – | – | – | – | – | – | – | pest or weed control at 10 ppm ([1]; Myzus persicae, foliar, 48 h, 10 ppm, death rate after 48 hrs): 100%; pest or weed control at 100 ppm (wheat powdery mildew; Triticum aestivum, 168 h, read-out: protectant activity against wheat powdery mildew in vivo, 100 ppm): 100%; Insecticidal activity against carmine spider mite (% ) (carmine spider mite; 2.5 mg/L): 64%; Insecticidal activity against carmine spider mite (% ) (carmine spider mite; 5 mg/L): 78%; pest or weed control at 10 µg/mL (carmine spider mite; Tetranychus cinnabarinus, 72 h, 10 mg/L, contrastive test, read-out: Insecticidal activity against carmine spider mite (% )): 87%; pest or weed control at 100 µg/mL (carmine spider mite; Tetranychus cinnabarinus, 72 h, 100 mg/L, contrastive test, read-out: Insecticidal activity against carmine spider mite (% )): 100%; pest or weed control at 600 µg/mL (carmine spider mite; Tetranychus cinnabarinus, 72 h, 600 mg/L, contrastive test, read-out: Insecticidal activity against carmine spider mite (% )): 100%; pest or weed control at 600 ppm (carmine spider mite; Tetranychus cinnabarinus, 72 h, 600 ppm, mortality after 72 hrs): 100%; protectant activity against corn rust in vivo (corn rust; 25 ppm): 100%; protectant activity against corn rust in vivo (corn rust; 400 ppm): 100%; pest or weed control at 100 ppm (corn rust; Zea mays, 168 h, read-out: protectant activity against corn rust in vivo, 100 ppm): 100%; pest or weed control at 600 ppm (Diamond back moth; 72 h, 600 ppm, mortality after 72 hrs, read-out: control (test results against diamond back moth)): 100% |
| Cc1ncnc(NCCc2ccc(Oc3ccc(C(F)(F)F)cc3)nc2)c1Cl [III-22] | 98 | 100 | 100 | 100 | 100 | 100 | 100 | 100 | 100 | 100 | 100 | 100 | 100 | 100 | 100 | 100 | 100 | 100 | 100 | 100 | Insecticidal activity against peach aphid (%) ([1]; 1.25 mg/L): 67%; protectant activity against cucumber downy mildew in vivo (cucumber downy mildew; 12.5 ppm): 100%; protectant activity against cucumber downy mildew in vivo (cucumber downy mildew; 25 ppm): 100%; protectant activity against cucumber downy mildew in vivo (cucumber downy mildew; 50 ppm): 100%; protectant activity against cucumber downy mildew in vivo (cucumber downy mildew; 100 ppm): 100%; protectant activity against cucumber downy mildew in vivo (cucumber downy mildew; 400 ppm): 100%; Insecticidal activity against carmine spider mite (% ) (carmine spider mite; 10 mg/L, contrastive test): 72%; Insecticidal activity against carmine spider mite (% ) (carmine spider mite; 100 mg/L, contrastive test): 100%; control against carmine spider mite (carmine spider mite; [6]): 100%; Insecticidal activity against armyworm (%) (armyworm; 10 mg/L): 71%; Insecticidal activity against armyworm (%) (armyworm; 100 mg/L): 100%; control (test results against armyworm) (armyworm; 100 ppm): 100%; control (test results against diamond back moth) (Diamond back moth; [6]): 100% |
| CCc1ncnc(NCCc2ccc(Oc3ccc(Cl)cc3)nc2)c1Cl [III-187] | – | – | 100 | 100 | 100 | – | 100 | 100 | 100 | 100 | 100 | 100 | 100 | 100 | 100 | 100 | 100 | 100 | 100 | 100 | protectant activity against cucumber downy mildew in vivo (cucumber downy mildew; 12.5 ppm): 100%; protectant activity against cucumber downy mildew in vivo (cucumber downy mildew; 25 ppm): 100%; protectant activity against cucumber downy mildew in vivo (cucumber downy mildew; 50 ppm): 100%; protectant activity against cucumber downy mildew in vivo (cucumber downy mildew; 100 ppm): 100%; protectant activity against cucumber downy mildew in vivo (cucumber downy mildew; 400 ppm): 100%; control against carmine spider mite (carmine spider mite; [6]): 100%; Insecticidal activity against armyworm (%) (armyworm; 10 mg/L): 95%; Insecticidal activity against armyworm (%) (armyworm; 100 mg/L): 100%; control (test results against armyworm) (armyworm; 100 ppm): 100%; control (test results against diamond back moth) (Diamond back moth; [6]): 100% |

From patent publication US9770026B2, “Substituted pyrimidine compound and uses thereof” (Shenyang Sinochem Agrochemicals R&D Co., Ltd., priority 2012, dated 2017)
